Experimental findings from paper PMC8953563, “A Study on the Effect of the Substituent against PAK4 Inhibition Using In Silico Methods” (International Journal of Molecular Sciences, 2022) are described below.

This assay concerns the target PAK4 (Homo sapiens, UniProt O96013). The experiment in a line: radiometric [γ-33P]-ATP kinase assay (Eurofins KinaseProfiler), myelin basic protein substrate. The assay is classed as biochemical.

Where two headings read alike, the source gives them in different places.

Sequence of PAK4 (O96013 whole entry): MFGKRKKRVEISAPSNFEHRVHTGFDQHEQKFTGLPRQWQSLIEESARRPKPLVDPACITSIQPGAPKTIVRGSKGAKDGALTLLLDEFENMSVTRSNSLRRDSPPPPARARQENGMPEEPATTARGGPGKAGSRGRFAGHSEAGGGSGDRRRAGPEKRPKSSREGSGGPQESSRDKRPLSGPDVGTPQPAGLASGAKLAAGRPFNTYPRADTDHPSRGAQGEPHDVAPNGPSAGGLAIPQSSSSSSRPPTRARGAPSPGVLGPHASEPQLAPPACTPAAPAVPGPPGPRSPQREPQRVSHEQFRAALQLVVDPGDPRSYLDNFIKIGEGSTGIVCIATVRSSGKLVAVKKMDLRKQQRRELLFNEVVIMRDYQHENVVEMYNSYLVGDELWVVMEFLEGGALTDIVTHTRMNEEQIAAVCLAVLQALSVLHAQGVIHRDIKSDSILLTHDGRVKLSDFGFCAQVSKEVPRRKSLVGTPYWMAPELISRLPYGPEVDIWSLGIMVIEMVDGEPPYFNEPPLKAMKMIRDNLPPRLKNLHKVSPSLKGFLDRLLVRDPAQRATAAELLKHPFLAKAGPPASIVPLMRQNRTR

Take `CC(C)c1nn(C)cc1-c1nc2cc(Br)cnc2[nH]1` [compound 1, 6-bromo-2-(3-isopropyl-1-methyl-1H-pyrazol-4-yl)-3H-imidazo[4,5-b]pyridine]: the IC50 (read-out: 1) is 5.15 µM. As for `CC(C)c1nn(C)cc1-c1nc2cc(Cl)cnc2[nH]1` [compound 2, 6-chloro-2-(3-isopropyl-1-methyl-1H-pyrazol-4-yl)-3H-imidazo[4,5-b]pyridine], for the setting “read-out: 2”, the IC50 was 8.53 µM.
